Measurements from paper PMC8150775, “Repositioning Azelnidipine as a Dual Inhibitor Targeting CD47/SIRPα and TIGIT/PVR Pathways for Cancer Immuno-Therapy” (Biomolecules, 2021).

How the values were obtained:
[1] = biological target: T1, CD47/SIRPα interaction (Homo sapiens, UniProt P78324); assay: Blocking assay by flow cytometry, preliminary screening at a single concentration, CD47/SIRPα; assay type: binding; settings: preliminary test, single concentration of 100 μM
T1 construct: purchased ACRO Biosystem SIA-H5251; host or cells: CHOK1-CD47 cells (lenti-viral transfection)
Method: (§1) The abilities of small molecule inhibitors (SMIs) (purchased from TargetMol, Shanghai, China) to block the binding of SIRPα protein to CHOK1-CD47 cells or PVR protein to CHOK1-TIGIT cells were determined by flow cytometry, as previously reported. The SMIs at indicated concentrations were incubated with Fc-tagged SIRPα or PVR protein for 30 min at 4°C, followed by incubating with the indicated cells for another 30 min. Human SIRPα protein (SIA-H5251, ACRO Biosystem, Beijing, China), mouse SIRPα protein (SIA-M5258, ACRO Biosystem, Beijing, China), human PVR protein (CD5-H82F6, ACRO Biosystem, Beijing, China), and mouse PVR protein (50259-M03H, Sino Biological, Beijing, China) were used. PE-conjugated anti-human IgG antibody was used to detect the Fc protein bind to cells. Cells incubated with the Fc proteins and anti-human IgG antibody without the SMIs serve as the positive control. The mean fluorescent intensity (MFI) of each sample was detected and recorded by a flow cytometry. The blocking efficacy of the SMIs was calculated as the equation: (MFI of the positive control-MFI of the SMI)/MFI of the positive control × 100%.
(§2) The small molecule inhibitor could not only bind to the target; most importantly, it should interfere with the receptor–ligand interactions. Subsequently, the candidate inhibitors were screened by the blocking assays with the established CD47 and TIGIT over-expressing cell lines. The test was initialed with a preliminary screening of the candidates with a single concentration (Figure 2D). Generally, the SMI blocking efficacy to the CD47/SIRPα interaction was much higher than that of the TIGIT/PVR. […] Therefore, the SMI-F11 and SMI-F17 may exert dual blocking effects in the CD47/SIRPα and TIGIT/PVR pathways. Blocking assays with a concentration gradient of the SMI were further performed to validate the preliminary screening. […] The similar blocking assays with the mouse CD47 and TIGIT over-expressing cells were also performed. […] Considering that most pairs of the immune checkpoints interact with the corresponding ligand in parallel forms, the blocking assays with the PD-1/PD-L1 interaction system was also conducted to test the specificity.

[2] = biological target: T2, TIGIT/PVR interaction (Homo sapiens, UniProt P15151); assay: Blocking assay by flow cytometry, preliminary screening at a single concentration, TIGIT/PVR; assay type: binding; settings: preliminary test, single concentration of 100 μM
T2 construct: purchased ACRO Biosystem CD5-H82F6; host or cells: CHOK1-TIGIT cells (lenti-viral transfection)
T2 sequence (P15151 21-343 limits assumed): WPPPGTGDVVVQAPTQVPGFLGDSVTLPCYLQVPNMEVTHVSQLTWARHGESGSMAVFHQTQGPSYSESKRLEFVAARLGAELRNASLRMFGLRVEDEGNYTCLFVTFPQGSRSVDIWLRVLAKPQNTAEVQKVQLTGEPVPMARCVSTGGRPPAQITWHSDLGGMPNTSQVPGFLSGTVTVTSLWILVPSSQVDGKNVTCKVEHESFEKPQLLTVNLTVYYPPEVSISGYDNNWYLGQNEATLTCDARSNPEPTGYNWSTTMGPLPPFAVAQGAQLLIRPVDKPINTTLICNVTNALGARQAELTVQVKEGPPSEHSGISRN
Method: as §1, §2

[3] = biological target: T3, human CD47/SIRPα (Homo sapiens, UniProt P78324); assay: Blocking assay, human SIRPα protein binding to CHOK1-hCD47 cells; settings: concentration gradient
T3 construct: purchased ACRO Biosystem SIA-H5251; host or cells: soluble protein purchased; CD47 on CHOK1-hCD47 cells (lenti-viral transfection)
Method: as §1

[4] = biological target: T4, human TIGIT/PVR (Homo sapiens, UniProt P15151); assay: Blocking assay, human PVR protein binding to CHOK1-hTIGIT cells; settings: concentration gradient
T4 construct: purchased ACRO Biosystem CD5-H82F6; host or cells: soluble protein purchased; TIGIT on CHOK1-hTIGIT cells (lenti-viral transfection)
Method: as §1

T1 sequence (P78324 31-370 limits assumed): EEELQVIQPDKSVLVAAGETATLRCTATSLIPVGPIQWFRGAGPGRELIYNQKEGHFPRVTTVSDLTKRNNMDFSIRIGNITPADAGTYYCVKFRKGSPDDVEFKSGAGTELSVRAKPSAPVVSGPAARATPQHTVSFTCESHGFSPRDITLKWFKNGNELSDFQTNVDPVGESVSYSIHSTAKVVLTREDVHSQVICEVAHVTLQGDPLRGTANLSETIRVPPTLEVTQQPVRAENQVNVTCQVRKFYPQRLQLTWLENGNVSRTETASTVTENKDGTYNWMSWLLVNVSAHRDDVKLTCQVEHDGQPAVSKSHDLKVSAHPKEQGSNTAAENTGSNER
T3 sequence (P78324 31-370 limits assumed): as above

Cc1cc(O)c(C(=O)N[C@@H](C(=O)N[C@@H]2C(=O)N3C(C(=O)O)=C(CSc4nnnn4C)CS[C@H]23)c2ccc(O)cc2)cn1 [SMI-F12, Cefpiramide acid]
blocking efficacy, CD47/SIRPα interaction [1]: more than 50%

CCCSc1ccc2nc(NC(=O)OC)[nH]c2c1 [SMI-F16, Albendazole]
activity in interfering with the TIGIT/PVR interaction [2]: better activities

O=C1[C@H](CC[C@H](O)c2ccc(F)cc2)[C@@H](c2ccc(O)cc2)N1c1ccc(F)cc1 [SMI-F17, Ezetimibe]
blocking efficacy, CD47/SIRPα interaction [1]: more than 50% | activity in interfering with the TIGIT/PVR interaction [2]: better activities | concentration-dependent blocking effect, CD47/SIRPα [3]: could not exert blocking effects in a concentration-dependent manner | concentration-dependent blocking effect, TIGIT/PVR [4]: could not exert blocking effects in a concentration-dependent manner

COc1cccc(N(C)C(=S)Oc2ccc3c(c2)CCCC3)n1 [SMI-F20, Liranaftate]
activity in interfering with the TIGIT/PVR interaction [2]: better activities

Nc1cccc2c1CN(C1CCC(=O)NC1=O)C2=O (centres unmarked) [SMI-F19, Lenalidomide]
blocking efficacy, CD47/SIRPα interaction [1]: more than 50%
